Experiments:
[1] = tested on: EDEN2 (clinical DENV2 isolate); assay: Antiviral effect in BHK-21 cells, plaque assay of supernatant 48 h pi; assay type: cell-based; conditions: BHK-21, EDEN2, MOI 0.3; read-out: EC50
Procedure: (§1) Cells were infected with DENV strains for 1 hour at 37° C. and washed once with culture media. […] The supernatants were subjected to standard plaque assay and the EC50 values were determined using the GraphPad Prism software.
(§2) NITD008, an adenosine analog inhibitor of DENV polymerase (Yin et al., 2009) was used as a positive control.

[2] = tested on: EDEN1 (clinical DENV1 isolate); assay: as above; assay type: cell-based; conditions: read-out: EC50
Procedure: as §1, §2

[3] = tested on: S221 (mouse-adapted DENV2 strain); assay: as above; assay type: cell-based; conditions: BHK-21, S221, MOI 0.3; read-out: EC50
Procedure: as §1, §2

[4] = tested on: EDEN2 (clinical DENV2 isolate); assay: Ab-mediated infection of THP-1 cells with enhancing concentration of 4G2 Ab; assay type: cell-based; conditions: THP-1 with 4G2 Ab, EDEN2, MOI 50, single experiment; read-out: EC50
Procedure: as §1, §2

[5] = tested on: EDEN1 (clinical DENV1 isolate); assay: as above; assay type: cell-based; conditions: THP-1 with 4G2 Ab, EDEN1, MOI 2, single experiment; read-out: EC50
Procedure: as §1, §2

[6] = tested on: S221 (mouse-adapted DENV2 strain); assay: as above; assay type: cell-based; conditions: THP-1 with 4G2 Ab, S221, MOI 2, single experiment; read-out: EC50
Procedure: as §1, §2

[7] = tested on: EDEN2 (clinical DENV2 isolate); assay: Antiviral effect in Vero cells, plaque assay of supernatant 48 h pi; assay type: cell-based; conditions: EDEN2, MOI 0.3, read-out: EC50
Procedure: as §1, §2

[8] = tested on: EDEN1 (clinical DENV1 isolate); assay: as above; assay type: cell-based
Procedure: as §1, §2

[9] = tested on: S221 (mouse-adapted DENV2 strain); assay: as above; assay type: cell-based; conditions: S221, MOI 0.3, read-out: EC50
Procedure: as §1, §2

[10] = tested on: EDEN1; assay: Non-lethal viremia mouse model; assay type: in vivo, mice
Procedure: (§3) Mice were inoculated i.v. with EDEN1 (7×10^7 pfu) or EDEN2 (1×10^8 pfu). […] Average viral copy numbers on day 1 and 2 were measured using mixed serum of each group. […] A P value less than 0.05 was considered significant (*P<0.05). The number of mice per group is 6. […] Average viral copy numbers on days 4 and 5 were measured using mixed serum of each group. […] The virological log reduction (VLR) from day 3 to day 6 was also shown as the mean value and standard deviations. The number of mice per group is 6.
(§4) Since dengue fever patients in general present at a clinic when viremia is at a peak level (Low et al., 2014; Nguyen et al., 2013; Tricou et al., 2010), we next compared the 2 different dosing regimens; one started at the time of infection and another started at the time of peak viremia (on day 3 pi) similar to human situation (FIG. 4A). In this experiment, we used a non-lethal viremia mouse model, which permits the tracking of viremia kinetics for a longer period of time (FIG. 1B).

[11] = tested on: EDEN2; assay: Non-lethal viremia mouse model; assay type: in vivo, mice
Procedure: as §3, §4

[12] = tested on: EDEN2 (clinical DENV2 isolate); assay: Antiviral effect in HuH-7 cells, plaque assay of supernatant 48 h pi; assay type: cell-based; conditions: HuH-7, EDEN2, MOI 0.3; read-out: EC50
Procedure: as §1, §2

[13] = tested on: EDEN1 (clinical DENV1 isolate); assay: as above; assay type: cell-based; conditions: read-out: EC50
Procedure: as §1, §2

[14] = tested on: S221 (mouse-adapted DENV2 strain); assay: as above; assay type: cell-based; conditions: HuH-7, S221, MOI 0.3; read-out: EC50
Procedure: as §1, §2

[15] = CELADEN study regimen, human; cited from earlier work
[16] = mice, celgosivir 50 mg/kg BID; cited from earlier work

## C#C[C@@]1(O)[C@H](O)[C@@H](CO)O[C@H]1n1ccc2c(N)ncnc21 [NITD008, reference compound]
[1]
  EC50: 354 nM
[2]; BHK-21, EDEN1, MOI 0.01
  EC50: 608 nM
[2]; BHK-21, EDEN1, MOI 0.3
  EC50: 865 nM
[3]
  EC50: 509 nM
[4]
  EC50: 679 nM
[5]
  EC50: 358 nM
[6]
  EC50: 390 nM
[7]
  EC50: 1170 nM
[8]; EDEN1, MOI 0.01, read-out: EC50
  EC50: 910 nM
[8]; EDEN1, MOI 0.3, read-out: EC50
  EC50: 2820 nM
[9]
  EC50: 1480 nM
[10]; EDEN1, NITD008 25 mg/kg BID from day 0
  viremia reduction on day 3 pi: 3.5 fold
[10]; EDEN1, NITD008 25 mg/kg BID started on day 3
  VLR from day 3 to day 6: 0.96
[11]; EDEN2, NITD008 25 mg/kg BID from day 0
  viremia reduction on day 3 pi: 4.9 fold
[11]; EDEN2, NITD008 25 mg/kg BID started on day 3
  VLR from day 3 to day 6: 2.24
[12]
  EC50: 98 nM
[13]; HuH-7, EDEN1, MOI 0.01
  EC50: 356 nM
[13]; HuH-7, EDEN1, MOI 0.3
  EC50: 684 nM
[14]
  EC50: 74 nM

## O[C@H]1[C@H](O)[C@@H](O)CN2CC[C@H](O)[C@H]12 [castanospermine]
[15]
  steady state maximum castanospermine concentration: 5100 nanograms/ml
[16]
  steady state minimum castanospermine concentration: 400 nanograms/ml

— US11000516B2 (priority 2015, dated 2021)
